# What was measured:
# [1] = target: T1, Transcriptional activator protein LasR (Pseudomonas aeruginosa (strain ATCC 15692 / PAO1 / 1C / PRS 101 / LMG12228), UniProt P25084); experiment: Antagonist activity against LasR-mediated quorum sensing system in Pseudomonas aeruginosa PAO1 by spectrophotometric assay
# T1 sequence (P25084 whole entry): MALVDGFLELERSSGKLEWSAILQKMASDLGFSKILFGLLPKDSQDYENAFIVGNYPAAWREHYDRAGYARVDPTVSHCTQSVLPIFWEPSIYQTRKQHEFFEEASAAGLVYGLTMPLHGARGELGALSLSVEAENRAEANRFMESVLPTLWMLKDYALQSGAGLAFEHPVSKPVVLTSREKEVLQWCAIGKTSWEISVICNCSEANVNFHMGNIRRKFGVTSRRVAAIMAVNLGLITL
# [2] = test system: Pseudomonas aeruginosa; experiment: Inhibition of quorum sensing system in Pseudomonas aeruginosa MH602 PlasB-gfp(ASV) assessed as inhibition of green fluorescent protein production at 62.5 to 250 uM for 20 hrs by fluorescence assay; details: dose 62.5-250 µM
# [3] = test system: Escherichia coli; experiment: Inhibition of Escherichia coli DH5alpha LasR co-expressing LasR beta-galactosidase reporter assessed as inhibition of beta-galactosidase activity at 100 uM incubated for 2 hrs by spectrophotometric assay
# [4] = Inhibition of Escherichia coli DH5alpha LasR co-expressing LasR beta-galactosidase reporter assessed as inhibition of beta-galactosidase activity incubated for 2 hrs by spectrophotometric assay
# [5] = Inhibition of quorum sensing system in Chromobacterium violaceum CV026 assessed as inhibition of violacein production incubated for 16 to 18 hrs by spectrophotometric assay
# [6] = test system: Pseudomonas aeruginosa; experiment: Inhibition of quorum sensing system in Pseudomonas aeruginosa MH602 expressing PlasB::gfp assessed as inhibition of GFP fluorescence expression at 250 uM incubated for 15 hrs by fluorescence microplate reader analysis
# [7] = test system: Pseudomonas aeruginosa; experiment: Inhibition of quorum sensing system in Pseudomonas aeruginosa MH602 PlasB-gfp(ASV) assessed as inhibition of green fluorescent protein production at 62.5 uM for 20 hrs by fluorescence assay
# [8] = test system: Pseudomonas aeruginosa; experiment: Inhibition of quorum sensing system in Pseudomonas aeruginosa MH602 PlasB-gfp(ASV) assessed as inhibition of green fluorescent protein production at 125 uM for 20 hrs by fluorescence assay
# [9] = test system: Pseudomonas aeruginosa; experiment: Inhibition of quorum sensing system in Pseudomonas aeruginosa MH602 PlasB-gfp(ASV) assessed as inhibition of green fluorescent protein production at 250 uM for 20 hrs by fluorescence assay
# [10] = Antagonist activity against quorum sensing system in Vibrio harveyi BB120 assessed as inhibition of […] incubated for 5 hrs by bioluminescence assay
# [11] = Inhibition of quorum sensing system in Pseudomonas aeruginosa PAO1 assessed as inhibition of pyocyanin production at 15 uM incubated for 12 hrs by spectrophotometric assay
# [12] = Inhibition of quorum sensing system in Pseudomonas aeruginosa PAO1 assessed as inhibition of rhamnolipid production at 15 uM incubated for 12 hrs by spectrophotometric assay
# [13] = test system: Pseudomonas aeruginosa; experiment: Inhibition of biofilm formation in Pseudomonas aeruginosa PAO1 incubated for 12 hrs by crystal violet staining based analysis; format: functional
# [14] = Inhibition of quorum sensing system in Pseudomonas aeruginosa PAO1 assessed as decrease in lasI expression at 15 uM incubated for 12 hrs by real-time fluorescent quantitative PCR analysis
# [15] = Agonist activity against RhlR in Escherichia coli expressing JLD271/pJN105R2/pSC11-rhlI using CPRG as substrate by spectrophotometric assay
# [16] = test system: Pseudomonas aeruginosa; experiment: Inhibition of Pseudomonas aeruginosa MH602 harboring PlasB::gfp(ASV) reporter assessed as decrease in GFP expression at 250 uM incubated for 22 hrs by fluorescence microplate reader analysis
compound,measurement,setting,value
O=C(CNc1ccc(C(=O)/C=C/c2ccc(Cl)cc2)cc1)N[C@H]1CCOC1=O,IC50,[1],46.8 µM
O=C(Cn1cc(-c2ccc(F)cc2)nn1)Nc1nc2ccccc2[nH]1,inhibition,[2],49%
O=C(Cn1cc(-c2ccccc2)nn1)N[C@H]1CCOC1=O,inhibition,[3],89.6%
same,IC50,[4],15.9 µM
O=C(Nc1ccc(S(=O)(=O)N[C@H]2CCOC2=O)cc1)c1cccc(Cl)c1,IC50,[5],8.56 µM
O=C(Cn1cc(C2CC2)nn1)N[C@H]1CCOC1=O,inhibition,[3],52%
CCCCNC(=O)c1ccc(N2CC(Cl)=C(Cl)C2=O)cc1,inhibition,[6],30%
COc1cccc(/C=C/C(=O)c2ccc(NCC(=O)N[C@H]3CCOC3=O)cc2)c1,IC50,[1],56.5 µM
CCCCCC(=O)Nc1ccc(S(=O)(=O)N[C@H]2CCOC2=O)cc1,IC50,[5],29 µM
CCCCCc1cn(CC(=O)Nc2nc3ccccc3[nH]2)nn1,inhibition,[7],25%
same,inhibition,[8],34%
same,inhibition,[9],42%
O=C(Cn1cc(-c2cc(F)cc(F)c2)nn1)N[C@H]1CCOC1=O,inhibition,[3],71%
same,IC50,[4],13.7 µM
CCOC(=O)CC(=O)c1cccc(OC)c1,IC50,[10],41 µM
CCCCCCN1CC(Cl)=C(Cl)C1=O,inhibition,[6],68%
O=C(CNc1ccc(C(=O)/C=C/c2ccccc2Cl)cc1)N[C@H]1CCOC1=O,IC50,[1],67.8 µM
O=C(CCSc1nc2ccccc2s1)N[C@H]1CCOC1=O,inhibition,[11],15.1%
same,inhibition,[12],22.2%
same,inhibition (INH),[13],38%
same,inhibition,[14],32.9%
CCOC(=O)CC(=O)c1ccc(OC)cc1,IC50,[10],36 µM
O=C(Nc1ccc(S(=O)(=O)N[C@H]2CCOC2=O)cc1)c1cccc(F)c1,IC50,[5],7.79 µM
O=C(Nc1ccc(S(=O)(=O)N[C@H]2CCOC2=O)cc1)c1ccc(F)cc1,IC50,[5],14.7 µM
O=C(Nc1ccc(S(=O)(=O)N[C@H]2CCOC2=O)cc1)c1ccccc1C(F)(F)F,IC50,[5],4.91 µM
O=C(Cn1cc(-c2cccc([N+](=O)[O-])c2)nn1)Nc1nc2ccccc2[nH]1,inhibition,[2],28.2%
CCOC(=O)CC(=O)c1cccc2ccccc12,IC50,[10],76 µM
C=CCN1CC(Cl)=C(Cl)C1=O,inhibition,[6],76.4%
O=C(Nc1ccc(S(=O)(=O)N[C@H]2CCOC2=O)cc1)c1ccccc1F,IC50,[5],1.64 µM
CCCCCc1cn(CC(=O)N[C@H]2CCOC2=O)nn1,inhibition,[3],55%
same,IC50,[4],3.2 µM
CCCCc1cn(CC(=O)N[C@H]2CCOC2=O)nn1,inhibition,[3],75%
same,IC50,[4],17.6 µM
O=C(CSc1nc2ccccc2s1)N[C@H]1CCOC1=O,inhibition,[11],14.2%
same,inhibition,[12],20.5%
same,inhibition (INH),[13],28.6%
same,inhibition,[14],50.5%
O=C(CCC1CC1)N[C@H]1CCOC1=O,EC50,[15],2.76 µM
O=C(CNc1ccc(C(=O)/C=C/c2ccc(F)cc2)cc1)N[C@H]1CCOC1=O,IC50,[1],46.8 µM
Cc1ccc(-n2cc(CCC(=O)N[C@H]3CCOC3=O)nn2)cc1,inhibition,[3],72%
same,IC50,[4],10.9 µM
CC(C)CCC(=O)N[C@H]1CCOC1=O,EC50,[15],4.89 µM
O=C(CNc1ccc(C(=O)/C=C/c2ccccc2)cc1)N[C@H]1CCOC1=O,IC50,[1],62.5 µM
O=C(Nc1ccc(S(=O)(=O)N[C@H]2CCOC2=O)cc1)c1ccccc1,IC50,[5],17.2 µM
Cc1ccc2c(c1)C(=O)C(=O)NCc1cnnn1CC(=O)Nc1ccc(C)cc1C(=O)C(=O)NCc1cnnn1CC(=O)N2,inhibition,[16],58.6%
CCCCC(=O)Nc1ccc(S(=O)(=O)N[C@H]2CCOC2=O)cc1,IC50,[5],49.5 µM
CCCCCC(=O)N[C@H]1CCOC1=O,EC50,[15],10.8 µM
O=C(Nc1ccc(S(=O)(=O)N[C@H]2CCOC2=O)cc1)c1ccccc1Cl,IC50,[5],1.66 µM
O=C(Cn1cc(C2CCCC2)nn1)N[C@H]1CCOC1=O,inhibition,[3],70%
same,IC50,[4],16.3 µM
CCCc1cn(CC(=O)Nc2nc3ccccc3[nH]2)nn1,inhibition,[7],25%
same,inhibition,[8],34%
same,inhibition,[9],42%
O=C(Cn1cc(CC2CCCCC2)nn1)N[C@H]1CCOC1=O,inhibition,[3],14%
O=C(CNc1ccc(C(=O)/C=C/c2ccccc2Br)cc1)N[C@H]1CCOC1=O,IC50,[1],37.6 µM
O=C(Cn1cc(-c2ccc(Br)cc2)nn1)Nc1nc2ccccc2[nH]1,inhibition,[2],45.7%
COc1ccc(-c2cn(CC(=O)Nc3nc4ccccc4[nH]3)nn2)cc1,inhibition,[8],5.16%
same,inhibition,[9],20%
CCOC(=O)CC(=O)c1cccc(C)c1,IC50,[10],56 µM
CCc1cn(CC(=O)Nc2nc3ccccc3[nH]2)nn1,inhibition,[7],25%
same,inhibition,[8],34%
same,inhibition,[9],42%
O=C(CNc1ccc(C(=O)/C=C/c2ccc(Br)cc2)cc1)N[C@H]1CCOC1=O,IC50,[1],46.8 µM
CCOC(=O)CC(=O)c1ccc([N+](=O)[O-])cc1,IC50,[10],53 µM
O=C(Cn1cc(-c2ccc(O)cc2)nn1)Nc1nc2ccccc2[nH]1,inhibition,[2],34%
O=C(CNc1ccc(C(=O)/C=C/c2cc(Cl)cc(Cl)c2)cc1)N[C@H]1CCOC1=O,IC50,[1],46.8 µM
CCOC(=O)CC(=O)c1ccccc1,IC50,[10],76 µM
O=C1Cn2nncc2CNC(=O)C(=O)c2cc(F)ccc2NC(=O)Cn2nncc2CNC(=O)C(=O)c2cc(F)ccc2N1,inhibition,[16],46%
Cc1cc2nc(NC(=O)Cn3cc(-c4ccc(C(F)(F)F)cc4)nn3)[nH]c2cc1C,inhibition,[2],36.1%
O=C(CNc1ccc(C(=O)/C=C/c2ccc(Cl)c(Cl)c2)cc1)N[C@H]1CCOC1=O,IC50,[1],46.8 µM
COc1ccc(-n2cc(CCC(=O)N[C@H]3CCOC3=O)nn2)cc1,inhibition,[3],75%
same,IC50,[4],16.5 µM
O=C(Cn1cc(-c2ccc(C(F)(F)F)cc2)nn1)Nc1nc2ccccc2[nH]1,inhibition,[2],57.5%
O=C(NCc1ccccc1)c1ccc(N2CC(Cl)=C(Cl)C2=O)cc1,inhibition,[6],30%
CCOC(=O)CC(=O)c1ccc(Cl)cc1,IC50,[10],53 µM
O=C(CNc1ccc(C(=O)/C=C/c2ccc(Br)cc2F)cc1)N[C@H]1CCOC1=O,IC50,[1],26.5 µM
CCOC(=O)CC(=O)c1ccc(Br)cc1,IC50,[10],81 µM
CCOC(=O)CC(=O)c1ccc(I)cc1,IC50,[10],39 µM
O=C(N[C@H]1CCOC1=O)c1ccc(-n2cc(CSc3ccccc3)nn2)cc1,inhibition,[3],62%
same,IC50,[4],2.64 µM
O=C(Cn1cc(C2CCCCC2)nn1)N[C@H]1CCOC1=O,inhibition,[3],72%
same,IC50,[4],12.4 µM
CCC(C)CC(=O)N[C@H]1CCOC1=O (some centres undefined),EC50,[15],7.77 µM
Cc1ccc(-c2cn(CC(=O)Nc3nc4ccccc4[nH]3)nn2)cc1,inhibition,[2],32%
O=C(Nc1ccc(S(=O)(=O)N[C@H]2CCOC2=O)cc1)c1ccc(Cl)cc1,IC50,[5],15.9 µM
O=C(Cn1cc(-c2ccc([N+](=O)[O-])cc2)nn1)Nc1nc2ccccc2[nH]1,inhibition,[2],63.7%
CCOC(=O)CC(=O)c1ccc(F)cc1,IC50,[10],23 µM
Cc1ccc2c(c1)C(=O)C(=O)N2C(=O)CCl,inhibition,[16],57.4%
CCOC(=O)CC(=O)c1ccc(C)cc1,IC50,[10],96 µM
CCCCCCNC(=O)c1ccc(N2CC(Cl)=C(Cl)C2=O)cc1,inhibition,[6],30%
CCCCN1CC(Cl)=C(Cl)C1=O,inhibition,[6],71.4%
CCOC(=O)CC(=O)c1cccc([N+](=O)[O-])c1,IC50,[10],71 µM
C/C=C/CCC(=O)N[C@H]1CCOC1=O,EC50,[15],6.93 µM
Nc1cccc(-n2cc(CCC(=O)N[C@H]3CCOC3=O)nn2)c1,IC50,[4],4.03 µM

# From ChEMBL document CHEMBL5230154, “Chemical probe of AHL modulators on quorum sensing in Gram-Negative Bacteria and as antiproliferative agents: A review” (Eur J Med Chem, 2021)
